This test deals with T1, human TLR7 (Homo sapiens, UniProt Q9NYK1).
T1 sequence (Q9NYK1 27-1049): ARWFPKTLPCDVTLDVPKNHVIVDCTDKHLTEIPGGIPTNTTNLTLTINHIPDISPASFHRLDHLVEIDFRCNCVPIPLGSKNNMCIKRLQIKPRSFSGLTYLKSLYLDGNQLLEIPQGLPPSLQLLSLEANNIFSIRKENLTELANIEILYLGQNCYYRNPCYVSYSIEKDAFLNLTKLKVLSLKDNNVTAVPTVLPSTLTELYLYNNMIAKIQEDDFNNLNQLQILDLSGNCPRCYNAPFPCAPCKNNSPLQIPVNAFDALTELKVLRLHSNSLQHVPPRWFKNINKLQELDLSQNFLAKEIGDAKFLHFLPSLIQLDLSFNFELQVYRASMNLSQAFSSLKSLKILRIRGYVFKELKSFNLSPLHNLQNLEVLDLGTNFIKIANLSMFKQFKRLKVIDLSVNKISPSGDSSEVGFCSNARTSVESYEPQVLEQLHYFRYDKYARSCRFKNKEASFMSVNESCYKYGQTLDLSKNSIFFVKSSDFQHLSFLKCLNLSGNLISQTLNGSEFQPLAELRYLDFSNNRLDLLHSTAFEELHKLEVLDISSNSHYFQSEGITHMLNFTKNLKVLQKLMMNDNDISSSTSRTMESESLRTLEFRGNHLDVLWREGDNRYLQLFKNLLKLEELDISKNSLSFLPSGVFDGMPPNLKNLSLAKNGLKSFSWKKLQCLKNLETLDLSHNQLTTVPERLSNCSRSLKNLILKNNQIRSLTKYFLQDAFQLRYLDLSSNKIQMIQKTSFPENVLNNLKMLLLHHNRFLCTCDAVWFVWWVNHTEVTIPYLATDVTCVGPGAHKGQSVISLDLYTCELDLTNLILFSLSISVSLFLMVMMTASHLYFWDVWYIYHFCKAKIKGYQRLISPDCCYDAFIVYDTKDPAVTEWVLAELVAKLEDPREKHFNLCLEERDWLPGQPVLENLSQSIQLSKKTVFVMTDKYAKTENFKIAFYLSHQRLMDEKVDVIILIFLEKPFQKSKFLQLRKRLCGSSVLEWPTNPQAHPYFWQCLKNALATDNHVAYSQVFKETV
Nature of the test: HEK293-Blue-hTLR-7 cells assay. The class given is cell-based. As to conditions: HEK293-Blue-hTLR7 cells, R848 stimulation, 20 hrs, SEAP reporter; read-out: HEK/hTLR7 IC50. The source says: HEK293-Blue-hTLR-7 Cells Assay:
A stable HEK293-Blue-hTLR-7 cell line was purchased from InvivoGen (Cat. #: hkb-htlr7, San Diego, California, USA). These cells were originally designed for studying the stimulation of human TLR7 by monitoring the activation of NF-κB. A SEAP (secreted embryonic alkaline phosphatase) reporter gene was placed under the control of the IFN-β minimal promoter fused to five NF-κB and AP-1-binding sites. The SEAP was induced by activating NF-κB and AP-1 via stimulating HEK-Blue hTLR7 cells with TLR7 ligands. Therefore the reporter expression was declined by TLR7 antagonist under the stimulation of a ligand, such as R848 (Resiquimod), for incubation of 20 hrs. The cell culture supernatant SEAP reporter activity was determined using QUANTI-Blue™ kit (Cat. #: rep-qb1, Invivogen, San Diego, Ca. USA) at a wavelength of 640 nm, a detection medium that turns purple or blue in the presence of alkaline phosphatase.
HEK293-Blue-hTLR7 cells were incubated at a density of 250,000˜450,000 cells/mL in a volume of 170 μL in a 96-well plate in Dulbecco's Modified Eagle's medium (DMEM) containing 4.5 g/L glucose, 50 U/mL penicillin, […], […], 2 mM L-glutamine, 10% (v/v) heat-inactivated fetal bovine serum with addition of 20 μL test compound 1n a serial dilution in the presence of final DMSO at 1% and 10 μL of 20 uM R848 in above DMEM, perform incubation under 37° C. in a CO2 incubator for 20 hrs. Then 20 μL of the supernatant from each well was incubated with 180 μL Quanti-blue substrate solution at 37° C. for 2 hrs and the absorbance was read at 620-655 nm using a spectrophotometer. The signaling pathway that TLR7 activation leads to downstream NF-κB activation has been widely accepted, and therefore similar reporter assay was modified for evaluating TLR7 antagonist.

Here are results for 19 molecules from patent US12157746B2, “Tetrahydro-1H-pyrazino[2,1-a]isoindolylquinoline compounds for the treatment of autoimmune disease” (F. HOFFMANN-LA ROCHE AG, priority 2018, dated 2024).

Each structure is given as a SMILES string. A value given as a limit tells only on which side of the number the result lay.

With `C[C@@H]1CN(c2ccc(C#N)c3ncccc23)C[C@@H]2c3ccc(N4C[C@H](N)[C@@H](O)C4)cc3CN12` [Example 40A, 5-[(4R,10bS)-8-[(3S,4S)-3-amino-4-hydroxy-pyrrolidin-1-yl]-4-methyl-3,4,6,10b-tetrahydro-1H-pyrazino[2,1-a]isoindol-2-yl]quinoline-8-carbonitrile], the IC50 came to 3.7 nM.

`C[C@@H]1CN(c2ccc(C#N)c3ncccc23)C[C@@H]2c3ccc(N[C@H]4CNC[C@H]4F)cc3CN12` [Example 30, 5-[(4R,10bS)-8-[[(3S,4R)-4-fluoropyrrolidin-3-yl]amino]-4-methyl-3,4,6,10b-tetrahydro-1H-pyrazino[2,1-a]isoindol-2-yl]quinoline-8-carbonitrile]: the IC50 is < 3.2 nM.

With `C[C@@H]1CN(c2ccc(C#N)c3ncccc23)C[C@@H]2c3ccc(N4CCC(N)(CO)C4)cc3CN12` (stereo partly drawn) [Example 19, 5-[(4R,10bS)-8-[3-amino-3-(hydroxymethyl)pyrrolidin-1-yl]-4-methyl-3,4,6,10b-tetrahydro-1H-pyrazino[2,1-a]isoindol-2-yl]quinoline-8-carbonitrile], the IC50 came out at 3.6 nM.

`CO[C@@H]1CN(c2ccc3c(c2)CN2C3CN(c3ccc(C#N)c4ncccc34)C[C@H]2C)C[C@@H]1N` (relative stereo) [Example 17, 5-[(4R,10bS)-8-[cis-3-amino-4-methoxy-pyrrolidin-1-yl]-4-methyl-3,4,6,10b-tetrahydro-1H-pyrazino[2,1-a]isoindol-2-yl]quinoline-8-carbonitrile]: the IC50 was < 3.2 nM.

In the case of `N#Cc1ccc(N2CCN3Cc4cc(N5CCNCC5)ccc4C3C2)c2scnc12` (stereo not shown) [Example 4, 7-(8-piperazin-1-yl-3,4,6,10b-tetrahydro-1H-pyrazino[2,1-a]isoindol-2-yl)-1,3-benzothiazole-4-carbonitrile], the IC50 was determined as 18.3 nM.

In the case of `C[C@@H]1CN(c2ccc(C#N)c3ncccc23)C[C@@H]2c3ccc(N4C[C@H](N)[C@@H](F)C4)cc3CN12` [Example 49, 5-[(4R,10bS)-8-[(3S,4S)-3-amino-4-fluoro-pyrrolidin-1-yl]-4-methyl-3,4,6,10b-tetrahydro-1H-pyrazino[2,1-a]isoindol-2-yl]quinoline-8-carbonitrile], the IC50 came to 4.5 nM.

Consider `CN[C@H]1CN(c2ccc3c(c2)CN2[C@H](C)CN(c4ccc(C#N)c5ncccc45)C[C@H]32)C[C@@H]1OC` [Example 23, 5-[(4R,10bS)-8-[(3S,4S)-3-methoxy-4-(methylamino)pyrrolidin-1-yl]-4-methyl-3,4,6,10b-tetrahydro-1H-pyrazino[2,1-a]isoindol-2-yl]quinoline-8-carbonitrile], for which the IC50 was determined as 7 nM.

Regarding `C[C@@H]1CN(c2ccc(C#N)c3ncccc23)C[C@@H]2c3ccc(N4CCNCC(O)C4)cc3CN12` (stereo partly drawn) [Example 15, 5-[(4R,10bS)-8-(6-hydroxy-1,4-diazepan-1-yl)-4-methyl-3,4,6,10b-tetrahydro-1H-pyrazino[2,1-a]isoindol-2-yl]quinoline-8-carbonitrile], the IC50 was found to be 5.8 nM.

Regarding `C[C@@H]1CN(c2ccc(C#N)n3nccc23)C[C@@H]2c3ccc(N4C[C@@H](N)[C@](C)(O)C4)cc3CN12` [Example 108, 4-[(4R,10bS)-8-[(3R,4R)-4-amino-3-hydroxy-3-methyl-pyrrolidin-1-yl]-4-methyl-3,4,6,10b-tetrahydro-1H-pyrazino[2,1-a]isoindol-2-yl]pyrazolo[1,5-a]pyridine-7-carbonitrile], the IC50 is 17.5 nM.

As for `CO[C@@H]1CNC[C@H]1Nc1ccc2c(c1)CN1[C@H](C)CN(c3ccc(C#N)c4ncccc34)C[C@H]21` [Example 34, 5-[(4R,10bS)-8-[[(3R,4R)-4-methoxypyrrolidin-3-yl]amino]-4-methyl-3,4,6,10b-tetrahydro-1H-pyrazino[2,1-a]isoindol-2-yl]quinoline-8-carbonitrile], the IC50 is 7.4 nM.

With `C[C@@H]1CN(c2ccc(C#N)c3ncccc23)C[C@@H]2c3ccc(OCCN(C)C)cc3CN12` [Example 25, 5-[(4R,10bS)-8-[2-(dimethylamino)ethoxy]-4-methyl-3,4,6,10b-tetrahydro-1H-pyrazino[2,1-a]isoindol-2-yl]quinoline-8-carbonitrile], the IC50 was < 3.2 nM.

Turning to `C[C@@H]1CN(c2ccc(C#N)n3nccc23)C[C@@H]2c3ccc(N4CCNCC4)cc3CN12` [Example 5, 4-[(4R,10bS)-4-methyl-8-piperazin-1-yl-3,4,6,10b-tetrahydro-1H-pyrazino[2,1-a]isoindol-2-yl]pyrazolo[1,5-a]pyridine-7-carbonitrile], the IC50 came to 4.9 nM.

Take `[2H]c1ccc2c(N3C[C@@H](C)N4Cc5cc(N6CC(C)(N)C6)ccc5[C@H]4C3)ccc(C#N)c2n1` [Example 92, 5-[(4R,10bS)-8-(3-amino-3-methyl-azetidin-1-yl)-4-methyl-3,4,6,10b-tetrahydro-1H-pyrazino[2,1-a]isoindol-2-yl]-2-deuterio-quinoline-8-carbonitrile]: the IC50 is 3.1 nM.

`C[C@@H]1CN(c2ccc(C#N)c3ncccc23)CC2c3ccc(N4C[C@H](N)[C@@H](O)C4)cc3CN21` (relative stereo) [Example 21, 5-[(4R,10bS)-8-[trans-3-amino-4-hydroxy-pyrrolidin-1-yl]-4-methyl-3,4,6,10b-tetrahydro-1H-pyrazino[2,1-a]isoindol-2-yl]quinoline-8-carbonitrile]: the IC50 is 5.8 nM.

For the molecule `C[C@@H]1CN(c2ccc(C#N)c3ncccc23)C[C@@H]2c3ccc(N4C[C@@H](N)[C@@H](F)C4)cc3CN12` [Example 47, 5-[(4R,10bS)-8-[(3R,4S)-3-amino-4-fluoro-pyrrolidin-1-yl]-4-methyl-3,4,6,10b-tetrahydro-1H-pyrazino[2,1-a]isoindol-2-yl]quinoline-8-carbonitrile], the IC50 amounted to 4.8 nM.

Consider `C[C@@H]1CN(c2ccc(C#N)c3ncccc23)C[C@@H]2c3ccc(N4C[C@@H](N)[C@H](F)C4)cc3CN12` [Example 48, 5-[(4R,10bS)-8-[(3R,4R)-3-amino-4-fluoro-pyrrolidin-1-yl]-4-methyl-3,4,6,10b-tetrahydro-1H-pyrazino[2,1-a]isoindol-2-yl]quinoline-8-carbonitrile], for which the IC50 was 5.8 nM.

Consider `C[C@@H]1CN(c2ccc(C#N)c3ncccc23)C[C@@H]2c3ccc(NCCN(C)C)cc3CN12` [Example 26, 5-[(4R,10bS)-8-[2-(dimethylamino)ethylamino]-4-methyl-3,4,6,10b-tetrahydro-1H-pyrazino[2,1-a]isoindol-2-yl]quinoline-8-carbonitrile], for which the IC50 worked out at 5.8 nM.

Turning to `C[C@@H]1CN(c2ccc(C#N)c3ncccc23)C[C@@H]2c3ccc(N4C[C@@H](N)[C@H](O)C4)cc3CN12` (single isomer, unassigned) [Example 40B], the IC50 stood at 4.3 nM.

On to `CO[C@@H]1CN(c2ccc3c(c2)CN2[C@H](C)CN(c4ccc(C#N)n5nccc45)C[C@H]32)CC[C@@H]1N` [Example 105, 4-[(4R,10bS)-8-[(3R,4S)-4-amino-3-methoxy-1-piperidyl]-4-methyl-3,4,6,10b-tetrahydro-1H-pyrazino[2,1-a]isoindol-2-yl]pyrazolo[1,5-a]pyridine-7-carbonitrile], for which the IC50 came to 4.9 nM.
